This is an account of results in ChEMBL document CHEMBL6109101, “Synthesis and bioactivity of cyclic peptide GG-8-6 analogues as anti-hepatocellular carcinoma agents” (Eur J Med Chem, 2025).

Active and inactive are the calls of the source. The rule behind the calls is not given here.

The subject of test [1] is MHCC97H. As to the kind of experiment: Antitumor activity against human MHCC97H cells xenografted in nude mouse assessed as tumor growth inhibition at 10 mg/kg, po administered daily for 3 weeks relative to control. Type of test: functional. The note with it: 504 h, read-out: TGI.
For another test, the system named is Huh-7. As to the kind of experiment: Antiproliferative activity against human Huh-7 cells assessed as reduction in intracellular ATP level at 10 uM incubated for 48 hrs by luminometer analysis relative to control. The test is classed as functional. Also noted: scale not given: the % may be the effect or the level left.
In test [2] the test system is MHCC97H. As to the kind of experiment: Antitumor activity against human MHCC97H cells xenografted in nude mouse assessed as tumor weight at 5 mg/kg, po administered daily for 3 weeks (reference value: 1.667g). Type of test: functional.
For the next test, the system named is HepG2. The experiment in a line: Antiproliferative activity against human HepG2 cells assessed as reduction in intracellular ATP level at 10 uM incubated for 48 hrs by luminometer analysis relative to control. Type of test: functional. Also noted: scale not given: the % may be the effect or the level left.
The test system of test [3] is MHCC97H. As to the kind of experiment: Antiproliferative activity against human MHCC97H cells assessed as reduction in intracellular ATP level at 10 uM incubated for 48 hrs by luminometer analysis relative to control. Type of test: functional. More on the design: scale not given: the % may be the effect or the level left.
Test [4] relates to MHCC97H. The experiment in a line: Antitumor activity against human MHCC97H cells xenografted in nude mouse assessed as tumor growth inhibition at 5 mg/kg, po administered daily for 3 weeks relative to control. Type of test: functional. The note with it: 504 h, read-out: TGI.
Test [5] concerns HCCLM3. As to the kind of experiment: Antiproliferative activity against human HCCLM3 cells assessed as reduction in intracellular ATP level at 10 uM incubated for 48 hrs by luminometer analysis relative to control. Type of test: functional. More on the design: scale not given: the % may be the effect or the level left.
In test [6] the test system is MHCC97H. The experiment in a line: Antitumor activity against human MHCC97H cells xenografted in nude mouse assessed as tumor weight at 10 mg/kg, po administered daily for 3 weeks (reference value: 1.667g). The test is classed as functional.
Test [7] deals with HCCLM3. The experiment in a line: Cytotoxicity against human HCCLM3 cells assessed as cell viability up to 40 uM measured at 24 to 48 hrs by MTT assay. Type of test: functional, cell-based. The settings on record: time 24-48 hrs.
The test system of test [8] is MHCC97H. The experiment in a line: Antitumor activity against human MHCC97H cells xenografted in nude mouse assessed as increase in apoptotic cells at 5 to 10 mg/kg, po administered daily for 3 weeks by TUNEL staining based assay. Type of test: functional, organism-based. The settings on record: dose 5-10 mg/kg.
For test [9], the system named is HCCLM3. The experiment in a line: Cytotoxicity against human HCCLM3 cells assessed as reduction in cell viability up to 40 uM measured at 48 hrs by MTT assay. The test is classed as functional, cell-based.
The subject of test [10] is MHCC97H. As to the kind of experiment: Cytotoxicity against human MHCC97H cells assessed as cell viability incubated at 12 to 48 hrs hrs by MTT assay. The test is classed as functional, cell-based. The settings on record: dose <= 40.0 µM, time 12-48 hrs.
The subject of test [11] is HCCLM3. As to the kind of experiment: Cytotoxicity against human HCCLM3 cells assessed as cell viability up to 40 uM measured at 12 hrs by MTT assay. Type of test: functional, cell-based.
In test [12] the test system is HCCLM3. As to the kind of experiment: Cytotoxicity against human HCCLM3 cells assessed as cell viability up to 40 uM by MTT assay. Type of test: functional, cell-based. The settings on record: time 12-48 hrs.
Test [13] has as its system HCCLM3. As to the kind of experiment: Cytotoxicity against human HCCLM3 cells assessed as reduction in cell viability at 40 uM measured at 48 hrs by MTT assay. The test is classed as functional, cell-based.
Test [14] relates to MHCC97H. As to the kind of experiment: Cytotoxicity against human MHCC97H cells assessed as reduction in cell viability up to 40 uM measured at 48 hrs by MTT assay. The test is classed as functional, cell-based.
Test [15] has as its system HCCLM3. The experiment in a line: Cytotoxicity against human HCCLM3 cells assessed as reduction in cell viability at 40 uM measured after 48 hrs by MTT assay. Type of test: functional, cell-based.
Test [16] has as its system MHCC97H. As to the kind of experiment: Cytotoxicity against human MHCC97H cells assessed as cell viability up to 40 uM measured at 12 hrs by MTT assay. The test is classed as functional, cell-based.
Test [17] relates to MHCC97H. As to the kind of experiment: Cytotoxicity against human MHCC97H cells assessed as cell viability up to 40 uM by MTT assay. Type of test: functional, cell-based. The settings on record: time 12-48 hrs.
The subject of test [18] is MHCC97H. The experiment in a line: Cytotoxicity against human MHCC97H cells assessed as cell viability up to 40 uM measured at 24 to 48 hrs by MTT assay. Type of test: functional, cell-based. The note with it: time 24-48 hrs.
The test system of test [19] is MHCC97H. The experiment in a line: Cytotoxicity against human MHCC97H cells assessed as reduction in cell viability at 40 uM measured after 48 hrs by MTT assay. Type of test: functional, cell-based.
Test [20] has as its system MHCC97H. As to the kind of experiment: Cytotoxicity against human MHCC97H cells assessed as reduction in cell viability at 40 uM measured at 48 hrs by MTT assay. Type of test: functional, cell-based.
For test [21], the system named is HCCLM3. As to the kind of experiment: Cytotoxicity against human HCCLM3 cells assessed as cell viability incubated at 12 to 48 hrs hrs by MTT assay. Type of test: functional, cell-based. The settings on record: dose <= 40.0 µM, time 12-48 hrs.
Test [22] has as its system MHCC97H. The experiment in a line: Antitumor activity against human MHCC97H cells xenografted in nude mouse assessed as tumor weight at 15 mg/kg, po administered daily for 3 weeks (reference value: 1.667g). Type of test: functional.
Test [23] relates to MHCC97H. As to the kind of experiment: Antiproliferative activity against human MHCC97H cells assessed as reduction in intracellular ATP level at 30 uM incubated for 48 hrs by luminometer analysis relative to control. Also noted: scale not given: the % may be the effect or the level left. The test is classed as functional.
Test [24] relates to MHCC97H. As to the kind of experiment: Antitumor activity against human MHCC97H cells xenografted in nude mouse assessed as tumor growth inhibition at 15 mg/kg, po administered daily for 3 weeks relative to control. Type of test: functional. The settings on record: 504 h, read-out: TGI.

Consider `CC[C@H](C)[C@@H]1NC(=O)[C@@H]2CCCN2C(=O)[C@H](CC(C)C)NC(=O)[C@H](COC(C)(C)C)NC(=O)[C@H](CC(C)C)NC(=O)[C@H](C(C)C)NC(=O)[C@H](CC(C)C)NC(=O)[C@H](CC(C)C)NC(=O)[C@H](CC(C)C)NC1=O`, for which the inhibition in vivo at 10 mg/kg in the test with MHCC97H [1] came out at 84.3%. For the same compound, the Activity with Huh-7 is 81.8%; in the test on MHCC97H [2], 0.052 g; in the test with HepG2, 41.1%; with MHCC97H [3], 87.8%; in the test on HCCLM3 [5] it was 99.9%; with MHCC97H [6], 0.262 g. Besides, the inhibition in vivo at 5 mg/kg with MHCC97H [4] came out at 68.9%.
Regarding `CC[C@@H](C)[C@H]1NC(=O)[C@@H]2CCCN2C(=O)[C@@H](CC(C)C)NC(=O)[C@H](COC(C)(C)C)NC(=O)[C@@H](CC(C)C)NC(=O)[C@H](C(C)C)NC(=O)[C@H](CC(C)C)NC(=O)[C@H](CC(C)C)NC(=O)[C@H](CC(C)C)NC1=O`, the result in the test with HCCLM3 [7], with MHCC97H [8], in the test with HCCLM3 [9], in the test on HCCLM3 [11], with HCCLM3 [13] and with MHCC97H [14] was Active. Moreover, the outcome in the test with HCCLM3 [15], in the test on MHCC97H [16], in the test on MHCC97H [18], with MHCC97H [19] and in the test on MHCC97H [20] was Active. The Activity entry in the test with MHCC97H [10] was “Dose-dependent-effect”; with HCCLM3 [12], “Time-dependent-effect”; with MHCC97H [17], “Time-dependent-effect”; in the test on HCCLM3 [21], “Dose-dependent-effect”.
On to `CC[C@H](C)[C@@H]1NC(=O)[C@@H]2CCCN2C(=O)[C@H](CC(C)C)NC(=O)[C@H](CO)NC(=O)[C@H](CC(C)C)NC(=O)[C@H](C(C)C)NC(=O)[C@H](CC(C)C)NC(=O)[C@H](CC(C)C)NC(=O)[C@H](CC(C)C)NC1=O`, for which, in the test with MHCC97H [1], the inhibition in vivo at 10 mg/kg came to 56.1%. Moreover, the Activity with Huh-7 turned out to be 47.3%; with MHCC97H [22], 0.695 g; in the test with MHCC97H [2] it was 0.552 g; with HepG2, 47.1%; with MHCC97H [3], 47.3%; in the test with HCCLM3 [5], 45.9%. For the same compound, the Activity with MHCC97H [23] is reported as 61.9%; with MHCC97H [6], 0.732 g. Also, in the test on MHCC97H [4], the inhibition in vivo at 5 mg/kg worked out at 66.9%. In addition, the inhibition in vivo at 15 mg/kg in the test on MHCC97H [24] is 58.4%.
